Laboratory results from US10709769B2, “Use of endostatin peptides for the treatment of fibrosis” (University of Pittsburgh—Of the Commonwealth System of …, priority 2009, dated 2020).

Assays:
mouse skin [1] = test: TGF-β-induced dermal fibrosis in vivo in mouse skin
Protocol: FIG. 9. E4 reverses TGF β-induced dermal fibrosis even if administered 3 days following TGF-β.
CB57BL6/J male mice were purchased from The Jackson Laboratory (Bar Harbor, Me.). Human rE (10 μg/ml) or Endostatin peptides (10 μg/ml) in combination with TGF-β (10 ng/ml), or TGF-β alone were injected intradermally on the back of mice in a total volume of 100 μl 1×PBS. Mice were injected in two different skin sites and sacrificed one week post-injection. Skin surrounding the injection site was harvested and fixed in 10% formalin prior to embedding in paraffin.
Six μm sections of paraffin-embedded human and mouse skin tissues were stained with hematoxylin and eosin (H&E). In some experiments, sections were stained with Masson trichrome which identifies collagens. Images were taken on a Nikon Eclipse 800 microscope. The thickness of the dermis was measured in 6 random fields of each section using the image/J® software. Data are shown in arbitrary units.
E4, a peptide representing the carboxy terminus of human endostatin, can attenuate fibrosis triggered by multiple fibrogenic factors. The anti-fibrotic effects of E4 can be detected whether administered concomitantly with or following the fibrogenic trigger. The efficacy of E4 was confirmed in […] pre-clinical models of fibrosis: a) bleomycin-induced dermal fibrosis in vivo in mouse skin, b) TGF-β induced dermal fibrosis in mouse skin, and c) bleomycin-induced pulmonary fibrosis. E4 peptide or a control peptide (E1; representing the amino terminal region of endostatin) were administered at the same time as TGF-β or bleomycin or 3-4 days following TGF-β or bleomycin. Mice were sacrificed one and two weeks after TGF-β-initiation of dermal fibrosis, and two and three weeks after bleomycin-induced pulmonary fibrosis. Two different modes of administration of the E4 peptide were also tested. It was confirmed that intraperitoneal and intratracheal administration was effective. The amount of E4 that was administered ws 10 μg/ml in a total volume of 100 μl for skin and IP injections and 50 μl for IT administration.

mouse lung = test: Bleomycin-induced pulmonary fibrosis in mice; assay type: in vivo; settings: for fibrosis and Masson Trichrome staining: 10 μg/ml intratracheally, lungs harvested 10 days
Protocol: FIG. 10A-10C. E4 attenuates bleomycin induced lung fibrosis in vivo. A: Sixty μg of bleomycin was administrated intratracheally in combination with DMSO as a vehicle (Bleo) or E-4 (Bleo+E-4; 10 μg/ml). In some mice, E-4 (10 μg/ml) was administered intratracheally (IT) three days following bleomycin treatment (Bleo+E-4L). PBS was used as a vehicle for bleomycin (V). Lungs were harvested 10 days post-treatment. Representative images stained with H&E (left panel) and Masson trichrome (right panel) are representative of 3 independent experiments. Magnification, 100×. […] B: Quantification of acid soluble collagen obtained from mouse lungs treated as in panel C with V, Bleo, Bleo+E-4, and Bleo+E-4L. The levels of collagen are presented as μg/mg (lung) from three independent experiments. Unpaired-t test was used for statistical analysis. * P<0.05. […] For Bleo+E4L, Bleo was administered first, then there was a lag of three days between Bleo and E4 administration).
FIG. 11. E4 attenuates bleomycin induced lung fibrosis in vivo whether administered intraperitoneally (IP) or intratracheally (IT). Bleomycin was administered IT at day 1, and E4 was administered either IP or IT at day 3. Lungs were harvested at day 21. […] Thus E4 is effective at reducing fibrosis irrespective of the route of administration. Results are shown for vehicle alone (V), bleomycin alone (Bleo), bleomycin and E4 administered IP, and bleomycin and E4 administered IT.
E4, a peptide representing the carboxy terminus of human endostatin, can attenuate fibrosis triggered by multiple fibrogenic factors. The anti-fibrotic effects of E4 can be detected whether administered concomitantly with or following the fibrogenic trigger. The efficacy of E4 was confirmed in […] pre-clinical models of fibrosis: a) bleomycin-induced dermal fibrosis in vivo in mouse skin, b) TGF-β induced dermal fibrosis in mouse skin, and c) bleomycin-induced pulmonary fibrosis. E4 peptide or a control peptide (E1; representing the amino terminal region of endostatin) were administered at the same time as TGF-β or bleomycin or 3-4 days following TGF-β or bleomycin. […]
For these studies, fibrosis was assessed by measurement of dermal thickness on H&E skin sections (skin), assessment of collagen levels by Masson Trichrome staining (skin and lung), and measurement of collagen levels by Sircol assay (lung). Furthermore, to confirm the mechanism by which E4 exerts its anti-fibrotic effects, the production of extra-cellular matrix (ECM) components, the levels of enzymes that promote matrix stabilization and thus accumulation and levels of those that degrade ECM components, and levels of transcription factors downstream of the pro-fibrotic triggers were evaluated. Results were assessed using the unpaired t test and the 3-way ANOVA (for the ID1 data).

mouse skin [2] = test: Bleomycin-induced dermal fibrosis in vivo in mouse skin; settings: single administration 10 μg/ml on first day, daily bleomycin s.c., skin harvested after 10 days
Protocol: FIGS. 8A-8B. The effect of endostatin E-4 on bleomycin induced dermal fibrosis in vivo. A: Mice were injected subcutaneously with 1×PBS as vehicle (V) or Bleomycin (Bleo; 20 μg/mouse) daily. E-4 (10 μg/ml) was mixed with bleomycin on the first day, and daily bleomycin administration was continued without subsequent injections of E4 (Bleo+E-4). Skin was harvested after 10 days. Sections were stained with H&E. Magnification, 100×. B: Graphical summary of dermal thickness data shown in A. Data represent three independent experiments. Mann-Whitney U test was used for statistical analysis. * P<0.001, ** P<0.00001.
E4, a peptide representing the carboxy terminus of human endostatin, can attenuate fibrosis triggered by multiple fibrogenic factors. The anti-fibrotic effects of E4 can be detected whether administered concomitantly with or following the fibrogenic trigger. […]
For these studies, fibrosis was assessed by measurement of dermal thickness on H&E skin sections (skin), assessment of collagen levels by Masson Trichrome staining (skin and lung), and measurement of collagen levels by Sircol assay (lung). […] Results were assessed using the unpaired t test and the 3-way ANOVA (for the ID1 data).

H-^133SYCETWRTEAPSATGQASSLLGGRLLGQSAASCHHAYIVLCIENSFMT^180-CONH2 (H-SYCETWRTEAPSATGQASSLLGGRLLGQSAASCHHAYIVLCIENSFMT-NH2; cysteine pairing not given here; UniProt P39060 1704-1751, looked up, fragment) [E4, amino acids 133-180 of human endostatin; differs from E3 by the presence of a carboxy-terminal amide]
TGFbeta induced dermal fibrosis, delayed treatment (mouse skin [1]; TGFβ day 1, peptide IP at day 3, harvested day 7): significant decrease
TGF-β-induced dermal fibrosis (dermal thickness) (mouse skin [1]; mice, intradermal, 10 μg/ml with TGF-β 10 ng/ml, one week post-injection): prevented
fibrosis and Masson Trichrome staining (mouse lung; concomitantly with bleomycin): marked reduction
fibrosis and Masson Trichrome staining (mouse lung; three days following bleomycin): marked reduction
bleomycin induced lung fibrosis (mouse lung; intraperitoneal at day 3, lungs harvested day 21): significant attenuation
bleomycin induced lung fibrosis (mouse lung; intratracheal at day 3, lungs harvested day 21): significant attenuation
bleomycin induced dermal fibrosis (dermal thickness) (mouse skin [2]): significant attenuation
